Marks after values point to notes of the source that are not given here.
How the values were obtained:
[1] = PHA-001 study: PK interaction study with methotrexate in RA patients; settings: single dose of CDP-870 400 mg SC; oral MTX 5-17.5 mg/week
TNFβ (lymphotoxin) = molecular target: T1, TNFβ (lymphotoxin) (Homo sapiens, UniProt P01374); experiment: Neutralization of TNFβ (lymphotoxin)
T1 sequence (P01374 35-205): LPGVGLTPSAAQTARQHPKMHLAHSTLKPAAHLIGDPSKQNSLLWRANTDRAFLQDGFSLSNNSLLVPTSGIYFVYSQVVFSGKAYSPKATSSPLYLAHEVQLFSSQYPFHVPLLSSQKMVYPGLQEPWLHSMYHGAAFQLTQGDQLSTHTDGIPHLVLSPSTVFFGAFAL

[2] = Half-life of the PEGylated Fab′ fragment; assay type: in vivo; settings: PEG chains linked by a single maleimide group
patients with active RA [3] = experiment: Celltech-002 study: single IV infusion, ACR responder rates; assay type: in vivo, human; settings: for ACR20 responder rate / ACR50 responder rate: week 8
Protocol: DMARD therapy was discontinued one month prior to study start; concomitant nonsteroidal anti-inflammatory drug (NSAID) and corticosteroid use was allowed provided the doses had been stabilized prior to entry into the study. […] Patients were assessed over an 8-week period.
Patients were assessed for an additional 8-week period.
(§1) The overall effect of CDP870 in reducing the signs and symptoms of RA was summarized using the following global index: • American College of Rheumatology (ACR) Core Set of Disease Activity Measures for Rheumatoid Arthritis Clinical Trials. A patient was considered an ACR 20/50/70 responder if 20/50/70% or greater improvement in number of swollen joints and tender joints and a 20/50/70% or greater improvement in three of the five remaining ACR core set measures (Patient's Assessment of Pain by VAS, Patient's Global Assessment of Disease Activity, Physician's Global Assessment of Disease Activity, Patient's Assessment of Physical Function by mHAQ, acute phase reactant value) was observed; and […]

patients with active RA [4] = experiment: Celltech-004 study: SC every 4 weeks, ACR responder rates; assay type: in vivo, human; settings: for ACR-20 responder rate / ACR-50 responder rate / ACR-70 responder rate: week 12
Protocol: Again, DMARD therapy was discontinued one month prior to study start; concomitant NSAID and corticosteroid use was allowed provided the doses had been stabilized prior to entry into the study.
The protocol was subsequently amended based on the results of the double-blind portion of Panel 1, to increase the dose to 400 mg SC every 4 weeks for an additional 108 weeks.
as §1

[5] = human, in vivo

In the case of `CN(Cc1cnc2nc(N)nc(N)c2n1)c1ccc(C(=O)N[C@@H](CCC(=O)O)C(=O)O)cc1` [MTX, methotrexate], the “mean dose-adjusted MTX plasma concentrations, MTX alone versus coadministration with CDP-870” value [1] is reported as “not significantly different”.

With “CDP-870: PEGylated anti-TNFα Fab′ fragment derived from antibody hTNF40, linked via a cysteine to a lysyl-maleimide linker bearing two methoxy PEG residues” the “neutralization of TNFβ (lymphotoxin)” value (TNFβ (lymphotoxin)) was “does not neutralize”, the half-life [2] was “about 11 days” and the ACR20 responder rate (patients with active RA [3]; 1 mg/kg single IV) was 25 % of Patients. The ACR50 responder rate (patients with active RA [3]; 1 mg/kg single IV) was 13 % of Patients, the ACR20 responder rate (patients with active RA [3]; 5 mg/kg single IV) was 75 % of Patients and the ACR50 responder rate (patients with active RA [3]; 5 mg/kg single IV) was 13 % of Patients. For the same compound, the ACR20 responder rate (patients with active RA [3]; 20 mg/kg single IV) was 75 % of Patients, the ACR50 responder rate (patients with active RA [3]; 20 mg/kg single IV) was 50 % of Patients and the “efficacy in reducing the signs and symptoms of RA” value (patients with active RA [3]; single IV dose of 1, 5 or 20 mg/kg, over 8 weeks) was “efficacious”. For the same compound, the ACR-20 responder rate (patients with active RA [4]; 50 mg SC every 4 weeks) was 21 % of Patients, the ACR-50 responder rate (patients with active RA [4]; 50 mg SC every 4 weeks) was 8 % of Patients and the ACR-70 responder rate (patients with active RA [4]; 50 mg SC every 4 weeks) was 5 % of Patients. The ACR-20 responder rate (patients with active RA [4]; 100 mg SC every 4 weeks) was 20 % of Patients, the ACR-50 responder rate (patients with active RA [4]; 100 mg SC every 4 weeks) was 5 % of Patients and the ACR-70 responder rate (patients with active RA [4]; 100 mg SC every 4 weeks) was 3 % of Patients. The ACR-20 responder rate (patients with active RA [4]; 200 mg SC every 4 weeks) was 34 % of Patients, the ACR-50 responder rate (patients with active RA [4]; 200 mg SC every 4 weeks) was 17* % of Patients and the ACR-70 responder rate (patients with active RA [4]; 200 mg SC every 4 weeks) was 7 % of Patients. The ACR-20 responder rate (patients with active RA [4]; 400 mg SC every 4 weeks) was 60* % of Patients, the ACR-50 responder rate (patients with active RA [4]; 400 mg SC every 4 weeks) was 40* % of Patients and the ACR-70 responder rate (patients with active RA [4]; 400 mg SC every 4 weeks) was 29* % of Patients. For the same compound, the ACR-20 responder rate (patients with active RA [4]; 600 mg SC every 4 weeks) was 64* % of Patients, the ACR-50 responder rate (patients with active RA [4]; 600 mg SC every 4 weeks) was 33* % of Patients and the ACR-70 responder rate (patients with active RA [4]; 600 mg SC every 4 weeks) was 21* % of Patients. For the same compound, the ACR-20 responder rate (patients with active RA [4]; 800 mg SC every 4 weeks) was 79* % of Patients, the ACR-50 responder rate (patients with active RA [4]; 800 mg SC every 4 weeks) was 47* % of Patients and the ACR-70 responder rate (patients with active RA [4]; 800 mg SC every 4 weeks) was 21* % of Patients. The “efficacy in treating the signs and symptoms of RA” value (patients with active RA [4]; doses ≧400 mg SC every 4 weeks) was “efficacious”, the “mean plasma concentration at 55 days postdose” value [5] was 2740 ng/mL and the “CL/F (plasma clearance)” value ([5]; sc) was 0.021 L/h. For the same compound, the t½ ([5]; sc) was 10.738 days, the “mean t½” value ([5]; sc, 400 mg) was 10.7 days and the “overall plasma exposure (AUC) over the 55-day monitoring period” value ([5]; sc, 400 mg) was “approximately 22000 hr*μg/mL”.
